Common to all, as to type: cell-based, human
Assay [1] has as its system anti-CD3/anti-CD28 stimulated PBLs. Kind of assay: Transcription factor (FOXP3, Tbox21, GATA3) mRNA expression by Real-Time PCR in activated PBL. The procedure:
This example describes the effect of TGFβ1 on the expression levels of Tbox 21, GATA3 and FOXP3 expression in anti-CD3/anti-CD28 stimulated PBLs. Real-time PCR was used to quantitate the levels of transcription factor mRNA in the presence and absence of TGFβ1.
PBL were stimulated for 72 hours with anti-CD3/anti-CD28 in the presence or absence of TGFβ1 and total RNA was extracted using a QiganRNeasy Mini Kit according to manufacturer's instructions. RNA was stored at minus 80° C.
cDNA was prepared from RNA using the Applied Biosystems High-Capacity cDNA Archive Kit according to manufacturer's instructions.
One μg cDNA was amplified using Applied Biosystems Assays-on-Demand™ Gene Expression products (i.e., TaqMan Universal PCR Mastermix and Assay-on-Demand solution, including marker specific primers) according to the following protocol, in accordance with manufacturer's instructions. Probe/primer reagents for FOXP3, GATA3 and Tbox21 were obtained from Applied Biosystems via the Assay on Demand program.
For the QPCR reaction, 2.5 μl Assay on Demand reagent (Applied Biosystems) were added to 25 μl TaqMan Master Mix™ and samples brought to a total volume of 50 μl with RNAse-free water. PCR reactions were run under the following conditions: 50° C. for 1 minute, 95° C. for 10 minutes and 40 cycles of 95° C. for 15 seconds followed by 60° C. for 1 minute. 18 sRNA or β-actin was run with every assay as a control; 2.5 μl of primer/probe mix, 25 μl of TaqMan MasterMix™, 22.5 μl RNAse-free water. Reactants were detected using an Applied Biosystems QPCR instrument (i.e., ABI Program 7000 SDS Sequence Detection System). The relative expression of the transcription factors for both TGFβ1-treated and untreated stimulated PBLs was determined. Relative expression was calculated assuming that the levels of transcription factor mRNA in stimulated PBL in the absence of added cytokines was 100%. […]
In general terms: Quantitative PCR measures a nucleic acid by following its amplification.

Assay [2] relates to Th1 cells. Description: Proliferation of differentiated Th1 cells (cell count). The note with it: re-stimulated with anti-CD3 and anti-CD28, three days, cells counted; vs untreated cells. The source says: (§1) Differentiated cell lines were produced from cells prepared from human cord blood or peripheral blood CD4+CD45RA+ naïve T cells by a variety of methods, including flow cytometry and magnetic bead separations. Purity of the starting populations was >95%. Cells were then stimulated by CD3 and CD28 antibodies in RPMI 1640 with 10% FCS and 1% Human AB serum with defined mixtures of cytokines and neutralizing antibodies to cytokines to produce the differentiated cell types. […]
(§2) Differentiated cell types were prepared as described in Example 1 then cultured in the presence of anti-CD3 and anti-CD28 for seven days. Cells were subsequently re-stimulated with anti-CD3 and anti-CD28, with the addition of Serotonin at 1, 10 and 100 μM, for three days at which time the cells were counted and the data were plotted as a percent of control (untreated cells).
(§3) Differentiated cell types were prepared as described in Example 1 then cultured in the presence of anti-CD3 and anti-CD28 for seven days. Cells were subsequently re-stimulated with anti-CD3 and anti-CD28 (as described in Example 7), with the addition of either Rolipram or Zardaverine at 0.1 μM, 1.0 μM and 10 μM for three days at which time the cells were counted and the data were plotted as a percent of control (untreated cells).

Assay [3] concerns Th1 cells. Kind of assay: Cytokine production in differentiated Th1 cells (Searchlight ELISA). As to conditions: percent of untreated control, 7-12 days. The source says:
(§4) Differentiated cell lines were produced from cells prepared from human cord blood or peripheral blood CD4+CD45RA+ naïve T cells by a variety of methods, including flow cytometry and magnetic bead separations. Purity of the starting populations was >95%. Cells were then stimulated by CD3 and CD28 antibodies in RPMI 1640 with 10% FCS and 1% Human AB serum with defined mixtures of cytokines and neutralizing antibodies to cytokines to produce the differentiated cell types. Th1 cells were produced by culture with IL12 (62 U/ml) and anti-IL4 (0.2 ug/ml); Th2 cells were produced by culture in IL4(145 U/ml) and anti-IL12 (10 ug/ml) and anti-IFNγ (10 ug/ml); and regulatory T cells were produced by culture in TGFβ (32 U/ml), IL9 (42 U/ml), anti-IL4 (10 ug/ml) and anti-IL12 (10 ug/ml) and anti-IFNγ (10 ug/ml). (Note: anti-IL12 was not used in all experiments). All cultures were supplemented with IL2 (65 U/ml) and IL15 (4500 U/ml). Cells were split into larger culture dishes as warranted by cell division. At the conclusion of one round of cell differentiation (7-12 days), cells were harvested for preparation of total RNA for use in the gene chip experiments.
(§5) Differentiated cells were prepared as described in Example 1. Varying concentrations (0.1 μM, 1.0 μM and 10 μM) of Thioperamide was added at the time of plating. At the conclusion of one round of cell differentiation (7-12 days), cells were assayed for the production of the cytokines, IL-2, IL-4, IL-5, IL-10, IL-12-p70, IL-13, IFN-γ, TNF-alpha, and TGFβ1, by Searchlight™ technology, a chemiluminescent enzyme-linked immunoabsorbant assay (ELISA) according to the manufacturer's instructions, commercially available from Pierce Biotechnology.
(§6) Data are plotted as a percent of control (untreated) assuming that the levels of cytokine production in stimulated differentiated cells in the absence of Thioperamide is 100%.
(§7) Differentiated cells were prepared as described in Example 1. Varying concentrations (1.0 μM, 10.0 μM and 100 μM) of Serotonin was added at the time of plating. At the conclusion of one round of cell differentiation (7-12 days), cells were assayed for the production of the cytokines, IL-2, IL-4, IL-5, IL-10, IL-12-p70, IL-13, IFN-γ, TNFα, and TGFβ1, by ELISA as described in Example 5.
(§8) Data are plotted as a percent of control (untreated) assuming that the levels of cytokine production in stimulated PBL in the absence of Serotonin is 100%.
(§9) Differentiated cells were prepared as described in Example 1. Varying concentrations (0.1 μM, 1.0 μM and 10.0 μM) of Rolipram or Zardaverine was added at the time of plating. At the conclusion of one round of cell differentiation (7-12 days), cells were assayed for the production of the cytokines, IL-2, IL-4, IL-5, IL-10, IL-12-p70, IL-13, IFN-γ, TNFα, and TGFβ1, by ELISA as described in Example 5.
(§10) The results of the effect of Rolipram on the production of cytokines is shown in FIGS. 11A, 11B, and 11C, and the results of the effect of Zardaverine on the production of cytokines is shown in FIGS. 12A, 12B, and 12C. Data are plotted as a percent of control (untreated) assuming that the levels of cytokine production in stimulated PBL in the absence of rolipram or zardaverine is 100%.
For orientation: ELISA stands for enzyme-linked immunosorbent assay.

Assay [4] deals with TGFβ1-derived Treg cells. Description: Cytokine production in TGFβ1-derived Treg cells (Searchlight ELISA). As to conditions: percent of untreated control, 7-12 days.
Source text: as §4, §5, §6, §7, §8, §9, §10

Assay [5] deals with Th2 cells. Kind of assay: Cytokine production in differentiated Th2 cells (Searchlight ELISA). As to conditions: percent of untreated control, 7-12 days.
Source text: as §4, §5, §6, §7, §8, §9, §10

For assay [6], the system named is Th2 cells. Description: Proliferation of differentiated Th2 cells (cell count). The note with it: cells counted.
Source text: as §1, §2, §3

The test system of assay [7] is TGFβ1-derived Treg cells. Description: Proliferation of TGFβ1-derived Treg cells (cell count). As to conditions: cells counted; for proliferation of TGFβ1-derived Treg cells: re-stimulated with anti-CD3 and anti-CD28, three days, vs untreated cells.
Source text: as §4, §2, §3

[8] abbreviates: mRNA, among the concentrations tested.
Setting [9] is: mRNA, over the concentrations tested, control = 100%.
Where [10] appears, read: PBL stimulated 72 hours with anti-CD3/anti-CD28, mRNA, FIG. 1.

Consider `CC(C)Oc1ccc2c(=O)c3cc(C(=O)O)ccc3oc2c1` [AH6809], for which the “Tbox21 expression relative to untreated control” value in assay [1] (at 0.1 μM) is listed as “increased”. Moreover, the “Tbox21 expression relative to untreated control” value in assay [1] (at 10 μM) is given as “decreased”. The “concentration of maximal FOXP3 expression” value in assay [1] (setting [8]) is 0.1 µM. Moreover, in assay [1] (setting [9]), the “FOXP3 expression relative to control” value was “trend toward increasing” and the “GATA3 expression relative to control” value is on record as “unchanged”.

With `COc1ccc(C2CNC(=O)C2)cc1OC1CCCC1` (stereo not drawn) [Rolipram], the “proliferation of Th1 cells” value in assay [2] is recorded as “reduce”. For the same molecule, in assay [1] (setting [9]), the “FOXP3 expression relative to control” value was “increased expression”, the “GATA3 expression relative to control” value is listed as “increased expression” and the “Tbox21 expression relative to control” value is listed as “neither of these inhibitors had more than a modest effect”. In assay [3], the “production of IL-10” value is “significantly reduced”. In addition, in assay [4], the “production of TGFβ1” value is listed as “significantly increased”. In addition, in assay [5], the “production of IL-4” value is “significantly increased”, the “production of IL-5” value is given as “significantly increased” and the “production of IL-13” value is “significantly increased”. Moreover, the “proliferation of Th2 cells” value in assay [6] (re-stimulated with anti-CD3 and anti-CD28, three days, vs untreated cells) is given as “reduce”. Also, in assay [7] (0.1, 1.0 and 10 μM, three days), the “proliferation of TGFβ1-derived Treg cells compared with Th1 and Th2 cells” value is reported as “may have been more strongly affected”. Further, in assay [7], the “proliferation of TGFβ1-derived Treg cells” value is listed as “reduce”.

For the molecule `NCCc1c[nH]c2ccc(O)cc12` [Serotonin], the “proliferation of Th1 cells” value in assay [2] is listed as “no proliferative effect”. In assay [1] (setting [8]), the “concentration of maximal GATA3 induction” value stood at 10.0 µM and the “concentration of maximal Tbox 21 induction” value was determined as 1.0 µM. For the same molecule, in assay [1] (setting [9]), the “FOXP3 expression relative to control” value is “increase”, the “GATA3 expression relative to control” value was “increase” and the “Tbox21 expression relative to control” value is recorded as “increase”. Moreover, in assay [3], the “production of IFN-gamma” value was “significantly reduced”, the “production of IL-2” value is “significantly reduced”, the “production of IL-10” value is listed as “significantly reduced” and the “production of IL-12” value is recorded as “significantly reduced”. Besides, in assay [3], the “production of TNF-alpha” value is on record as “significantly reduced”. In assay [4], the “production of IFN-gamma” value is “significantly reduced”, the “production of IL-2” value is on record as “significantly reduced” and the “production of TGFβ1” value was “significantly reduced”. For the same molecule, in assay [5], the “production of IL-4” value is on record as “significantly reduced”, the “production of IL-5” value is “significantly reduced”, the “production of IL-10” value is given as “no effect” and the “production of IL-13” value was “significantly reduced”. For the same molecule, in assay [6] (at each concentration tested (1, 10 and 100 μM), three days), the “increase of proliferation of Th2 cells compared to untreated control cells” value came to 50%. Besides, the “proliferation of TGFβ1-derived Treg cells” value in assay [7] is given as “no proliferative effect”.

Regarding `S=C(NC1CCCCC1)N1CCC(c2cnc[nH]2)CC1` [Thioperamide], in assay [1] (at 10 μM), the “FOXP3 expression relative to control” value is recorded as “moderate increase” and the “GATA3 expression relative to control” value is reported as “moderate increase”. For the same molecule, the “Tbox21 expression relative to control” value in assay [1] (setting [9]) is “relatively unchanged”. Also, in assay [3], the “production of IFN-gamma” value is “significantly induce”, the “production of IL-13” value is reported as “significantly reducing” and the “production of TNF-alpha” value is recorded as “significantly induce”. In addition, in assay [4], the “production of IFN-gamma” value was “significantly increased”, the “production of IL-2” value is listed as “significantly increased”, the “production of IL-4” value is listed as “significantly reduced” and the “production of IL-10” value is listed as “significantly increased”. Moreover, the “production of TGFβ1” value in assay [4] is listed as “significantly increased”. Also, in assay [5], the “production of IL-4” value was “significantly increased”, the “production of IL-5” value is recorded as “significantly increased”, the “production of IL-10” value was “significantly reduced” and the “production of IL-13” value is listed as “significantly increased”.

“TGFβ1: Transforming growth factor, beta 1; secreted protein added to stimulated PBL”: in assay [1] (setting [10]), the “FOXP3 expression relative to an untreated control” value was “approximately 2.5 fold” and the “GATA3 expression relative to an untreated control” value was “approximately 2 fold”.
